The record followed here is patent US20100292316A1, “IMPROVED THERAPEUTIC METHODS AND COMPOSITIONS COMPRISING CHROMAN RING COMPOUNDS” (Research Development Foundation, priority 2007, published 2010).

In one assay the test system is Arg. The experiment in a line: Arg mRNA (RT-PCR) and protein (Western blot) levels. Conditions: 40 μM α-TEA. It counts as cell-based, human. The protocol: Arg (ABL2) expression data obtained from gene array analysis was further confirmed by RT-PCR and Western blot analyses. […] Unlike MDA-MB-435 cells, the MCF-7 cell line is an estrogen-receptor positive/estrogen responsive human breast cancer line (Klotz et al., 1995). However, both cell lines were induced to undergo apoptosis by α-TEA as assessed by PARP cleavage (FIG. 1B).
(§1) Whole-cell protein extracts were prepared as described previously (Yu et al., 1999), and 50 μg of protein was loaded per lane, separated using SDS-PAGE on a 10-15% gel under reducing conditions, and electroblotted onto a nitrocellulose membrane ([…] Optitran BA-S-supported nitrocellulose; Schleicher and Schuell, Keene, N.H.). Equal loading was verified using GAPDH antibody. Primary rabbit antibodies with specificity for PARP and primary goat antibody with specificity for Arg were purchased from Santa Cruz Biotechnology (Santa Cruz, Calif.). Horseradish peroxidase conjugated goat anti-rabbit or horseradish goat anti-mouse secondary antibody was purchased from Jackson Immunoresearch Laboratory (West Grove, Pa.). Horseradish peroxidase-conjugated donkey anti-goat serum was purchased from Santa Cruz Biotechnology. Immune complexes were visualized using enhanced chemiluminescence detection (Pierce Chemical Co., Rockford, Ill.). Fold differences in level of chemiluminescence were determined by densitometric analyses.
Total RNA was isolated from cells using RNeasy Protect Mini kit (Qiagen, Valencia, Calif.) according to manufacturer's instruction. Reverse transcription was performed as described above except using 15 μg of total RNA as template. […]
The double stranded small interfering RNA oligonucleotides specific for Arg and negative control siRNA (with no known homology to mammalian genes) were purchased from Ambion (siRNA ID #1478, Austin, Tex.). […] The cells were collected, lysed and the lysates were analyzed by immunoblotting (Western blot).
(Immunoblotting shows a protein as a band on a membrane.)

For another assay, the system named is NOXA. As to the kind of experiment: NOXA mRNA (RT-PCR) and protein (Western blot) levels. It counts as cell-based, human. Conditions: for peak NOXA mRNA levels, fold higher than VEH control / NOXA protein levels, fold higher than VEH control: 40 μM α-TEA; for NOXA protein levels, fold higher than VEH control: 24 h. The protocol:
as §1
Total RNA was isolated from cells using RNeasy Protect Mini kit (Qiagen, Valencia, Calif.) according to manufacturer's instruction. Reverse transcription was performed as described above except using 15 μg of total RNA as template. Polymerase chain reaction (PCR) with Arg primers 30 cycles in volumes of 50 μl according to the manufacturer's protocol (Taq PCR Master Mix Kit; Qiagen, Valencia, Calif.). Primers used in the analyses were: Arg, forward (5′-CAGTGATGCCTCCACCTCAA-3′; SEQ ID NO:2) and reverse (5′-TTTCCCTCTCCCCTCAGAAAT-3′; SEQ ID NO:3) and for β-actin (loading control), forward (5′-GGCGGCACCACCATGTACCCT-3′; SEQ ID NO:4) and reverse (5′-AGGGGCCGGACTCGTCATACT-3′; SEQ ID NO:5) (Invitrogen, Carlsbad, Calif.). The amplification reaction involved denaturation at 95° C. for 30 seconds, annealing at 52° C. for 30 seconds, and extension at 72° C. for 30 seconds (for Arg) using a PTC-225 thermal cycler (MJ Research, San Francisco, Calif.). The PCR products were resolved on 1% agarose gels and visualized by ethidium bromide staining.
To confirm the microarray data, semi-quantative RT-PCR and Western blot analyses were carried out to measure the change in mRNA and protein level of NOXA using estrogen nonresponsive MDA-MB-435 and estrogen responsive MCF-7 human breast cancer cells. Assays were preformed as describide above using NOXA specific antibodies (purchased from Santa Cruz Biotechnology (Santa Cruz, Calif.)) and NOXA sepcific PCR primers (forward (5′-CGTGTGTAGTTGGCATCTCC-3′) and reverse (5′-GCCCCAAGTAACCCTCCTAT-3′)). In MCF-7 cells, α-TEA induced NOXA mRNA starting at 3 h, peaking at 15 h (FIG. 9A, left top panel). In MDA-MB-435 cells, α-TEA induced NOXA mRNA starting at 3 h, peaking at 6 h (FIG. 9A, right top panel). In both cell lines, protein levels of NOXA were increased at 15 and 24 h after α-TEA treatments (FIG. 9C, top panel). […] In MCF-7 cells, peak NOXA mRNA levels at 15 h were 1.5-fold higher than the VEH control and NOXA protein levels at 24 h were 7.6-fold higher than the VEH control. Upregulation of NOXA protein levels is correlated with PARP cleavage which is an indicator of cells undergoing apoptosis (Wolf and Green, 1999) (FIG. 9C, second panel). GAPDH levels served to help verify lane loads (FIG. 9C, bottom panel). […] NOXA protein levels were also assessed in other cell lines including MDA-MB-231 and T47D human breast cancer cell lines, immortalized, but nontumorigenic MCF-10A breast epithelial cells as well as human normal mammary epithelial cell line (HMEC) (Table 3). The ability of α-TEA to induce NOXA and induce apoptosis plus the p53 status based on the literature is summarized (Table 3).

For `Cc1c(C)c2c(c(C)c1OCC(=O)O)CC[C@@](C)(CCC[C@H](C)CCC[C@H](C)CCCC(C)C)O2` [α-TEA], the “up-regulation of Arg mRNA and protein levels” value in the assay on Arg (MCF-7 cells) was “not in MCF-7 cells”. The “peak Arg mRNA levels, fold of the vehicle (VEH) control” value in the assay on Arg (MDA-MB-435 cells, 24 h, RT-PCR densitometry) amounted to 1.5 fold. Besides, in the assay with Arg (MDA-MB-435 cells, 24 h, Western densitometry), the “peak Arg protein levels, fold of the VEH control” value was determined as 2.9 fold. Also, the “Ability of α-TEA to induce NOXA expression” value in the assay on NOXA (HMEC) is given as “No”; in the assay on NOXA (MCF-7), “Yes”; in the assay with NOXA (MCF-10A), “Yes”; in the assay with NOXA (MDA-MB-231), “Yes”; with NOXA (MDA-MB-435), “Yes”; with NOXA (T47D), “No”. Besides, the “peak NOXA mRNA levels, fold higher than VEH control” value in the assay with NOXA (MCF-7 cells, 15 h) was determined as 1.5 fold; in the assay with NOXA (MDA-MB-435 cells, 6 h), 2.6 fold. The “NOXA protein levels, fold higher than VEH control” value is listed as 7.6 fold with NOXA (MCF-7 cells) and 16.8 fold in the assay on NOXA (MDA-MB-435 cells).
